Strand notation (5' to 3'): a small letter for the sugar, then the base; units joined by * are phosphorothioate-linked, units joined directly phosphodiester-linked; [ ] holds rarer units or linkages, { } end groups; capitals alone tell only the bases. e = 2'-O-(2-methoxyethyl) (MOE); [5mC] = 5-methylcytosine; d = 2'-deoxy (DNA)
Tested on: human Factor 7 mRNA
Test: Antisense inhibition of human Factor 7 mRNA in HepB3 cells, 50 nM antisense oligonucleotide, lipofectin
Assay type: cell-based
Settings: Table 1, 50 nM, lipofectin, approximately 24 hours, relative to untreated control cells
Method: Antisense oligonucleotides targeted to a Factor 7 nucleic acid were tested for their effects on Factor 7 mRNA in vitro. Cultured HepB3 cells at a density of 4,000 cells per well were transfected using lipofectin reagent with 50 nM antisense oligonucleotide. After a treatment period of approximately 24 hours, RNA was isolated from the cells and Factor 7 mRNA levels were measured by real-time RT-PCR, as described herein. Factor 7 mRNA levels were adjusted according to total RNA content as measured by RIBOGREEN®. Results are presented as percent inhibition of Factor 7, relative to untreated control cells.
(§1) Antisense oligonucleotides targeted to a Factor 7 nucleic acid were designed and tested for their effects on Factor 7 mRNA in vitro. Certain antisense oligonucleotides from Table 3 were also retested for their effects on Factor 7 mRNA in vitro. Cultured HepB3 cells at a density of 4,000 cells per well were transfected using lipofectin reagent with 50 nM antisense oligonucleotide. After a treatment period of approximately 24 hours, RNA was isolated from the cells and Factor 7 mRNA levels were measured by real-time RT-PCR, as described herein. Human Factor 7 primer probe set RTS 2927 was used to measure mRNA levels. Factor 7 mRNA levels were adjusted according to total RNA content as measured by RIBOGREEN®. Results are presented as percent inhibition of Factor 7, relative to untreated control.
as §1, with “tested” for “tested for their effects on Factor 7 mRNA in vitro. Certain antisense oligonucleotides from Table 3 were also retested”
These gapmers were designed by creating gapmers shifted slightly upstream and downstream (i.e. “microwalk”) of the original gapmers from Table 7. Gapmers were also created with various motifs, e.g. 5-10-5 MOE, 3-14-3 MOE, and 2-13-5 MOE. These gapmers were tested in vitro. Cultured HepB3 cells at a density of 4,000 cells per well were transfected using lipofectin reagent with 50 nM antisense oligonucleotide. After a treatment period of approximately 24 hours, RNA was isolated from the cells and Factor 7 mRNA levels were measured by real-time RT-PCR. Factor 7 mRNA levels were adjusted according to total RNA content, as measured by RIBOGREEN®. Results are presented as percent inhibition of Factor 7, relative to untreated control cells.

Substance	% Inhibition
407597 (antisense eT*eG*eT*eT*eG*dA*d[5mC]*dA*dT*dT*d[5mC]*d[5mC]*d[5mC]*d[5mC]*dA*eT*eG*eG*eG*eA) [compound 407597]	39%
407942 (antisense e[5mC]*eA*e[5mC]*eA*eG*dG*dT*dG*dT*dG*d[5mC]*dG*dG*dA*dG*eG*eA*eG*eA*e[5mC]) [compound 407942]	41%
407895 (antisense e[5mC]*eA*e[5mC]*eA*e[5mC]*dA*dG*dA*dT*d[5mC]*dA*dG*d[5mC]*dT*dG*eG*eT*e[5mC]*eA*eT) [compound 407895]	72%
407941 (antisense eG*eA*eG*eA*e[5mC]*dG*d[5mC]*dA*dG*d[5mC]*d[5mC]*dG*dT*dT*dT*eA*eT*eT*eG*eT) [compound 407941]	65%
407663 (antisense eT*eT*eG*e[5mC]*eA*dG*dG*d[5mC]*dA*dG*dG*dA*d[5mC]*dT*dG*eG*eT*eG*eG*eT) [compound 407663]	44%
407631 (antisense eG*eG*eG*e[5mC]*eA*d[5mC]*d[5mC]*dA*d[5mC]*dA*dT*dG*dG*dT*d[5mC]*eA*eG*eT*eG*eA) [compound 407631]	66%
407904 (antisense eG*eA*eA*eA*e[5mC]*dA*dG*dT*dG*dG*dG*d[5mC]*d[5mC]*dG*d[5mC]*eG*eG*eA*eG*eA) [compound 407904]	83%
407888 (antisense e[5mC]*eG*eA*eA*eG*dA*d[5mC]*dT*dG*d[5mC]*dA*dG*d[5mC]*d[5mC]*dA*eG*eG*e[5mC]*eA*eG) [compound 407888]	34%
407889 (antisense eT*e[5mC]*e[5mC]*eT*eG*dG*dG*dT*dT*dA*d[5mC]*dG*dA*dA*dG*eA*e[5mC]*eT*eG*e[5mC]) [compound 407889]	54%
407638 (antisense eG*e[5mC]*e[5mC]*eA*e[5mC]*dT*d[5mC]*dG*dA*dT*dG*dT*dA*d[5mC]*dT*eG*eG*eG*eA*eG) [compound 407638]	0%

Same assay, conditions: gapmers targeted to nucleobases 4868 to 4899 of SEQ ID NO: 1, Table 8

Substance	% Inhibition of human Factor 7 mRNA levels
422221 (antisense eG*e[5mC]*e[5mC]*d[5mC]*dG*dA*dG*dT*dT*d[5mC]*dT*dG*d[5mC]*dA*dG*dG*dA*eG*e[5mC]*eG) [compound 422221]	59%

Same assay, conditions: lipofectin, 50 nM antisense oligonucleotide, approximately 24 hours, Factor 7 mRNA by real-time RT-PCR (RTS 2927), relative to untreated control

Substance	% Inhibition
416562 (antisense eA*eA*eA*eG*e[5mC]*dA*dG*dA*dG*d[5mC]*d[5mC]*dA*dG*d[5mC]*dT*e[5mC]*eT*eG*eA*e[5mC]) [compound 416562]	12%
416504 (antisense eT*e[5mC]*eA*eG*eA*dA*dA*dA*dG*d[5mC]*dT*d[5mC]*dT*d[5mC]*dA*eA*eG*eA*eA*e[5mC]) [compound 416504]	0%
416486 (antisense eA*eT*eT*eG*eA*d[5mC]*dA*dA*dG*dG*dG*d[5mC]*dT*dG*dT*eG*eG*e[5mC]*eA*eG) [compound 416486]	12%
416424 (antisense eG*eA*eG*eA*e[5mC]*d[5mC]*dA*dT*dG*dA*dT*dG*dA*dA*dA*eT*e[5mC]*eT*e[5mC]*eT) [compound 416424]	27%
416442 (antisense eA*eG*e[5mC]*eA*eG*dA*dT*dA*dT*dA*dG*dG*dA*d[5mC]*dT*eG*eG*eA*eG*e[5mC]) [compound 416442]	57%
416535 (antisense eG*e[5mC]*eA*eG*eG*dA*dT*dG*d[5mC]*dA*d[5mC]*dA*d[5mC]*d[5mC]*dA*eG*eG*eG*e[5mC]*eT) [compound 416535]	47%
416467 (antisense e[5mC]*e[5mC]*e[5mC]*eT*eG*dG*d[5mC]*d[5mC]*d[5mC]*d[5mC]*dA*dG*d[5mC]*dT*dG*eA*e[5mC]*eG*eA*eT) [compound 416467]	55%
416494 (antisense e[5mC]*eA*eG*eA*eT*dT*dT*dA*dA*dA*d[5mC]*dT*dG*d[5mC]*dA*eG*eA*eT*eG*eA) [compound 416494]	0%
416546 (antisense e[5mC]*e[5mC]*eA*eG*eG*d[5mC]*dT*dG*dG*dT*dT*dT*dG*dG*dA*eG*eA*eA*eA*e[5mC]) [compound 416546]	21%
416437 (antisense eA*eG*eG*e[5mC]*eA*d[5mC]*dA*d[5mC]*dT*dG*dG*dT*d[5mC]*d[5mC]*d[5mC]*e[5mC]*eA*eT*e[5mC]*eA) [compound 416437]	52%
416456 (antisense e[5mC]*eT*eG*e[5mC]*eG*d[5mC]*d[5mC]*dA*d[5mC]*d[5mC]*d[5mC]*dG*d[5mC]*d[5mC]*dG*eG*e[5mC]*eT*e[5mC]*eT) [compound 416456]	58%
416481 (antisense eA*eG*eA*eT*eG*dA*dT*dA*dA*dT*dG*dG*dA*dT*dA*eA*eG*eA*eA*e[5mC]) [compound 416481]	15%
416464 (antisense eA*eA*e[5mC]*eA*eT*dG*dT*dA*d[5mC]*dT*d[5mC]*d[5mC]*dG*dT*dG*eA*eT*eA*eT*eT) [compound 416464]	53%
416553 (antisense eG*eG*eT*eT*e[5mC]*dT*d[5mC]*dT*dG*d[5mC]*dA*d[5mC]*dA*dG*dG*eG*eT*eA*eG*eA) [compound 416553]	56%
416447 (antisense e[5mC]*eA*eT*eG*eG*dA*dT*dA*dT*dT*d[5mC]*dA*dA*d[5mC]*dT*eG*eT*eG*eG*eG) [compound 416447]	17%

Same assay, conditions: oligonucleotides targeted to nucleobases 11830 to 11869 of SEQ ID NO: 1 (Table 9)

Substance	% Inhibition (human Factor 7 mRNA levels)
422238 (antisense eA*e[5mC]*dA*dA*dT*dG*dG*dT*d[5mC]*dA*dG*dG*dG*d[5mC]*dT*eG*eG*eT*eT*eT) [compound 422238]	64%
422173 (antisense e[5mC]*eT*eG*dG*d[5mC]*dT*dG*dA*dG*dG*dA*dG*dA*d[5mC]*dA*dA*dT*eG*eG*eT) [compound 422173]	51%
422169 (antisense e[5mC]*eT*eG*dA*dG*dG*dA*dG*dA*d[5mC]*dA*dA*dT*dG*dG*dT*d[5mC]*eA*eG*eG) [compound 422169]	56%
422107 (antisense eG*e[5mC]*eT*eG*eG*d[5mC]*dT*dG*dA*dG*dG*dA*dG*dA*d[5mC]*eA*eA*eT*eG*eG) [compound 422107]	36%

Same assay, conditions: oligonucleotides targeted to nucleobases 13760 to 13789 of SEQ ID NO: 1 (Table 10)

Substance	% Inhibition (human Factor 7 mRNA levels)
422257 (antisense e[5mC]*e[5mC]*dA*d[5mC]*d[5mC]*d[5mC]*dG*d[5mC]*d[5mC]*dG*dG*d[5mC]*dT*d[5mC]*dT*eG*e[5mC]*eT*e[5mC]*eA) [compound 422257]	65%
422262 (antisense e[5mC]*eT*dG*d[5mC]*dG*d[5mC]*d[5mC]*dA*d[5mC]*d[5mC]*d[5mC]*dG*d[5mC]*d[5mC]*dG*eG*e[5mC]*eT*e[5mC]*eT) [compound 422262]	0%
422116 (antisense eT*eG*e[5mC]*eG*e[5mC]*d[5mC]*dA*d[5mC]*d[5mC]*d[5mC]*dG*d[5mC]*d[5mC]*dG*dG*e[5mC]*eT*e[5mC]*eT*eG) [compound 422116]	52%
422176 (antisense e[5mC]*e[5mC]*eG*d[5mC]*d[5mC]*dG*dG*d[5mC]*dT*d[5mC]*dT*dG*d[5mC]*dT*d[5mC]*dA*dT*e[5mC]*e[5mC]*e[5mC]) [compound 422176]	52%
416456 (antisense e[5mC]*eT*eG*e[5mC]*eG*d[5mC]*d[5mC]*dA*d[5mC]*d[5mC]*d[5mC]*dG*d[5mC]*d[5mC]*dG*eG*e[5mC]*eT*e[5mC]*eT) [compound 416456]	50%
422182 (antisense e[5mC]*eG*e[5mC]*d[5mC]*dA*d[5mC]*d[5mC]*d[5mC]*dG*d[5mC]*d[5mC]*dG*dG*d[5mC]*dT*d[5mC]*dT*eG*e[5mC]*eT) [compound 422182]	11%

Same assay, conditions: oligonucleotides targeted to nucleobases 14707 to 14732 of SEQ ID NO: 1 (Table 11)

Substance	% Inhibition (human Factor 7 mRNA levels)
422283 (antisense e[5mC]*eA*dG*d[5mC]*dA*dG*d[5mC]*d[5mC]*dT*dG*dA*dG*dG*d[5mC]*d[5mC]*eA*eG*e[5mC]*eA*eG) [compound 422283]	50%

Same assay, conditions: oligonucleotides targeted to nucleobases 15098 to 15122 of SEQ ID NO: 1 (Table 12)

Substance	% Inhibition (human Factor 7 mRNA levels)
422135 (antisense eA*eG*e[5mC]*eA*e[5mC]*dA*d[5mC]*dA*dT*dG*dG*dA*dG*dT*d[5mC]*eA*eG*e[5mC]*eA*eT) [compound 422135]	53%

Source: US9029337B2, “Modulation of factor 7 expression” (Isis Pharmaceuticals, Inc., priority 2007, dated 2015)
